The test has as its target canine TRPM8 (Canis lupus familiaris, UniProt Q1A7N1). The test can be described thus: In Vitro Canine TRPM8 Functional Assay (Ca2+ fluorescence, icilin activation). The conditions noted are these: for IC50: read-out: IC50; for inhibition at 0.5 µM: compound at 0.5 μM, read-out: % Inh @ 0.5; for inhibition at 0.2 µM: read-out: % Inh @ 0.2. It counts as cell-based. In a few lines:
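HEK293 cells stably expressing canine TRPM8 loaded with Calcium 3 dye; compound added and Ca2+ fluorescence monitored 5 min before icilin at a final level giving ~80% maximal response, read on FLIPR or FDSS. EC50 or IC50 from eight-point dose-response, quadruplicate wells per point.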

Where [1] appears, read: HEK293 cells stably expressing canine TRPM8, icilin activation, eight-point dose-response.
[2] abbreviates: canine TRPM8, icilin activation.
[3] abbreviates: compound at 0.2 μM, canine TRPM8, icilin activation.
Setting [4] is: 0.2 μM compound, HEK293 cells stably expressing canine TRPM8, icilin activation.

Experimental findings from patent US9434711B2 (Janssen Pharmaceutica, NV, priority 2007, dated 2016) are described below.

Molecules are shown by their SMILES. Read-outs that look alike come from different tables or passages of the source.

One may read the IC50 as the point on the concentration scale where inhibition reaches its midpoint.

canine TRPM8, sequence (Q1A7N1 1-1104): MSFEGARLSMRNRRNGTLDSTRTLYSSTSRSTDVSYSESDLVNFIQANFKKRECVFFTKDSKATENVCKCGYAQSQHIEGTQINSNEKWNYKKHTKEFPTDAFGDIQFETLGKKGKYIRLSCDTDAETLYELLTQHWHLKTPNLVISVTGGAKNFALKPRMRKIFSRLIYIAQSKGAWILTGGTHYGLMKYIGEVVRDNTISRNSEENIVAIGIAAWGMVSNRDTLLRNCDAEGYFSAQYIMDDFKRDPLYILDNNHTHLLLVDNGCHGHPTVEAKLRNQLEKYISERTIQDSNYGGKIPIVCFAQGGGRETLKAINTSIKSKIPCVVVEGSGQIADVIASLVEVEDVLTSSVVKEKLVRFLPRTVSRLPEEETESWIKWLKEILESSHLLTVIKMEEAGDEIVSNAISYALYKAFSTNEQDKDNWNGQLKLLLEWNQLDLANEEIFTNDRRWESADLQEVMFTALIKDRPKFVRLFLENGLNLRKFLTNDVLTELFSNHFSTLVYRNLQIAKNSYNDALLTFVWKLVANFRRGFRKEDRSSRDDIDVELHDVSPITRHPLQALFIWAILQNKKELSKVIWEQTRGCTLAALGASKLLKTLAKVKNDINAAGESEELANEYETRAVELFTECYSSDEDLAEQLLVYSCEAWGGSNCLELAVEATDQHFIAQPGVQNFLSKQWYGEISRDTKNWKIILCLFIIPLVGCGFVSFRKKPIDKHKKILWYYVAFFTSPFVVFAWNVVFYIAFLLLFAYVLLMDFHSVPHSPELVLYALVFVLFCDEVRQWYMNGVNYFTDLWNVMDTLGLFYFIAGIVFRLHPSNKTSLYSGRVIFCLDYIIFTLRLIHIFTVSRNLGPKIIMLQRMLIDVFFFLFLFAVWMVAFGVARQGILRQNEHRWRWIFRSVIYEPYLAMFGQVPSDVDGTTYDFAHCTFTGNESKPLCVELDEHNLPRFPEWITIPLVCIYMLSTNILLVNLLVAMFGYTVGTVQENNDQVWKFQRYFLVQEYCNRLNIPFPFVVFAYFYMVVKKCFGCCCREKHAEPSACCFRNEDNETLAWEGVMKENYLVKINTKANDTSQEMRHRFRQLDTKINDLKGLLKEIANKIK

Regarding `O=S(=O)(c1ccccc1)N(Cc1cccc(OC(F)(F)F)c1)c1cc2ccccc2s1` [Compound 57, N-(Benzo[b]thiophen-2-yl)-N-(3-trifluoromethoxy-benzyl)-benzenesulfonamide], the IC50 under setting [1] is 108 nM. The inhibition at 0.5 µM under setting [2] was found to be 100%.

With `Cc1c(N(CCC2CC2)S(=O)(=O)c2ccc(N(C)C)cc2)sc2ccccc12` [Compound 738, N-(3-Methyl-benzo[b]thiophen-2-yl)-N-(cyclopropyl-ethyl)-4-dimethylamino-benzenesulfonamide], the IC50 under setting [1] was 8.9 nM. For the same compound, under setting [3], the inhibition at 0.2 µM was 102%. As to `Cc1c(N(CCC2CC2)S(=O)(=O)c2ccc(-c3nnn[nH]3)nc2)sc2ccccc12` [Compound 804], the inhibition at 0.2 µM under setting [4] worked out at 102%. Regarding `Cc1nnc(-c2cccc(S(=O)(=O)N(Cc3ccc(F)c(C(F)(F)F)c3)c3sc4ccccc4c3C)c2)o1` [Compound 333, N-(3-Methyl-benzo[b]thiophen-2-yl)-N-(4-fluoro-3-trifluoromethyl-benzyl)-3-(5-methyl-[1,3,4]oxadiazol-2-yl)-benzenesulfonamide], the 50% inhibitory concentration (IC50) under setting [1] stood at 9 nM. For the same compound, under setting [3], the inhibition at 0.2 µM was 101%. As to `CCCCN(c1sc2ccccc2c1NC(C)=O)S(=O)(=O)c1ccc(C(=O)OC)cc1` [Compound 500, N-(3-Acetylamino-benzo[b]thiophen-2-yl)-N-(butyl)-4-carbomethoxy-benzenesulfonamide], under setting [3], the inhibition at 0.2 µM turned out to be 15%. On to `Cc1c(N(Cc2ccc(OC(F)(F)F)cc2)S(=O)(=O)c2ccc(N(C)C)cc2)sc2ccccc12` [Compound 799, N-(3-Methyl-benzo[b]thiophen-2-yl)-N-(4-trifluoromethoxy-benzyl)-4-dimethylamino-benzenesulfonamide], for which the inhibition at 0.2 µM under setting [4] worked out at 102%. Further, the 50% inhibitory concentration (IC50) (HEK293 cells stably expressing canine TRPM8, icilin activation, average of two or more determinations) was determined as 3.9 nM. Regarding `CCCCN(c1sc2ccccc2c1CN(C)C)S(=O)(=O)c1ccc(C(=O)OC)cc1` [Compound 420, N-(3-Dimethylaminomethyl-benzo[b]thiophen-2-yl)-N-(butyl)-4-carbomethoxy-benzenesulfonamide], under setting [3], the inhibition at 0.2 µM was determined as 48%. Turning to `CS(=O)(=O)Nc1ccc(S(=O)(=O)N(CCC(F)(F)F)c2sc3ccccc3c2Cl)cc1` [Compound 676, N-(3-Chloro-benzo[b]thiophen-2-yl)-4-methanesulfonylamino-N-(3,3,3-trifluoro-propyl)-benzenesulfonamide], the IC50 under setting [1] worked out at 25.9 nM. Besides, the inhibition at 0.2 µM under setting [3] came out at 102%. Turning to `O=S(=O)(c1ccccc1)N(Cc1ccccc1OC(F)(F)F)c1cc2ccccc2s1` [Compound 56, N-(Benzo[b]thiophen-2-yl)-N-(2-trifluoromethoxy-benzyl)-benzenesulfonamide], the IC50 under setting [1] is 103 nM. Moreover, the inhibition at 0.5 µM under setting [2] came out at 99%. For `CC(=O)c1c(N(Cc2ccc(F)c(F)c2)S(C)(=O)=O)sc2ccccc12` [Compound 229, N-(3-Acetyl-benzo[b]thiophen-2-yl)-N-(3,4-difluoro-benzyl)-methanesulfonamide], the IC50 under setting [1] was 21 nM. In addition, the inhibition at 0.2 µM under setting [3] was found to be 99%. For `Cc1c(N(Cc2ccc(F)c(F)c2)S(=O)(=O)c2cccc(O)c2)sc2ccccc12` [Compound 286, N-(3,4-Difluoro-benzyl)-N-(3-methyl-benzo[b]thiophen-2-yl)-3-hydroxy-benzenesulfonamide], the IC50 under setting [1] is 7 nM. In addition, the inhibition at 0.5 µM under setting [2] is 99%. For `COC(=O)c1ccc(S(=O)(=O)N(Cc2ccc(F)c(C(F)(F)F)c2)c2sc3ccccc3c2C=O)cc1` [Compound 211, N-(3-Formyl-benzo[b]thiophen-2-yl)-N-(4-fluoro-3-trifluoromethyl-benzyl)-4-carbomethoxy-benzenesulfonamide], the IC50 under setting [1] was found to be 30 nM. In addition, the inhibition at 0.2 µM under setting [3] was found to be 80%. The matching figures for `O=S(=O)(c1ccccc1)N(CCCc1ccccc1)c1sc2ccccc2c1Br` [Compound 246, N-(3-Bromo-benzo[b]thiophen-2-yl)-N-(3-phenyl-propyl)-benzenesulfonamide]: 8.8 nM and 102%. For the compound `CCCCN(c1sc2ccccc2c1C(C)=O)S(=O)(=O)c1ccc(C(=O)OC)cc1` [Compound 339, N-(3-Acetyl-benzo[b]thiophen-2-yl)-N-(butyl)-4-carbomethoxy-benzenesulfonamide], the IC50 under setting [1] amounted to 26.2 nM. The inhibition at 0.2 µM under setting [3] was 94%. Turning to `O=S(=O)(c1cccs1)N(Cc1ccc(F)c(C(F)(F)F)c1)c1sc2ccccc2c1Cl` [Compound 191, N-(3-Chloro-benzo[b]thiophen-2-yl)-N-(4-fluoro-3-trifluoromethyl-benzyl)-thiophene-2-sulfonamide], the inhibition at 0.2 µM under setting [3] was 105%. On to `CNc1ccc(S(=O)(=O)N(CCC2CC2)c2sc3ccccc3c2Cl)cc1` [Compound 690, N-(3-Chloro-benzo[b]thiophen-2-yl)-N-(2-cyclopropyl-ethyl)-4-methylamino-benzenesulfonamide], for which the half-inhibitory concentration (IC50) under setting [1] turned out to be 16.1 nM. Further, under setting [3], the inhibition at 0.2 µM was 101%. `CCCCN(c1cc2ccccc2s1)S(=O)(=O)NC` [Compound 532, N-(Benzo[b]thiophen-2-yl)-N-(butyl)-N′-methyl-sulfamide]: the inhibition at 0.2 µM under setting [3] was 19%.

For the compound `Cc1c(N(Cc2ccc(F)c(C(F)(F)F)c2)S(=O)(=O)c2ccc(C(=O)O)c(F)c2)sc2ccccc12` [Compound 775, N-(3-Methyl-benzo[b]thiophen-2-yl)-N-(4-fluoro-3-trifluoromethyl-benzyl)-3-fluoro-4-carboxy-benzenesulfonamide], the IC50 under setting [1] worked out at 1.6 nM. Also, under setting [3], the inhibition at 0.2 µM was found to be 95%. For `COC(=O)c1cccc(S(=O)(=O)N(Cc2ccc(F)c(C(F)(F)F)c2)c2sc3cc(F)ccc3c2C)c1` [Compound 375, N-(6-Fluoro-3-methyl-benzo[b]thiophen-2-yl)-N-(4-fluoro-3-trifluoromethyl-benzyl)-3-carbomethoxy-benzenesulfonamide], in that order: 37 nM and 79%.

Consider `O=C(O)c1ccc(S(=O)(=O)N(Cc2ccc(OC(F)(F)F)cc2)c2sc3ccccc3c2C2CCC2)cc1` [Compound 756, N-(3-Cyclobutyl-benzo[b]thiophen-2-yl)-N-(4-trifluoromethoxy-benzyl)-4-carboxy-benzenesulfonamide], for which the IC50 under setting [1] worked out at 1.4 nM. For the same compound, under setting [3], the inhibition at 0.2 µM came out at 101%.

In the case of `Cc1c(N(CCCCC(F)(F)F)S(=O)(=O)c2ccc(N3CCCCC3)cc2)sc2ccccc12` [Compound 752, N-(3-Methyl-benzo[b]thiophen-2-yl)-N-(5,5,5-trifluoro-pentyl)-4-piperidine-benzenesulfonamide], under setting [3], the “% Inh @ 0.2 (μM)” value is on record as 65%.

As to `CCS(=O)(=O)N(Cc1ccc(F)c(F)c1)c1sc2ccccc2c1C(C)(C)O` [Compound 226, N-(3,4-Difluoro-benzyl)-N-[3-(1-hydroxy-1-methyl-ethyl)-benzo[b]thiophen-2-yl]-ethanesulfonamide], the 50% inhibitory concentration (IC50) under setting [1] worked out at 2 nM. Moreover, the inhibition at 0.2 µM under setting [3] turned out to be 99%.

As to `O=C(O)c1ccc(S(=O)(=O)N(Cc2ccc(F)c(C(F)(F)F)c2)c2sc3ccccc3c2CO)cc1` [Compound 218, N-(3-Hydroxymethyl-benzo[b]thiophen-2-yl)-N-(4-fluoro-3-trifluoromethyl-benzyl)-4-carboxy-benzenesulfonamide], the IC50 under setting [1] stood at 1 nM. Besides, the inhibition at 0.2 µM under setting [3] came to 90%.
